From ChEMBL document CHEMBL5543140 (J Med Chem, 2024)
The source made the active and inactive calls. The calls are words filed in the database; no cut-off is given here.

Tests used:
[1] = MRTinf in male Sprague-Dawley rat brain at 1 mg/kg, iv measured upto 8 hrs by LC-MS/MS analysis; assay type: ADME, organism-based
[2] = Clearance in Wistar rat plasma at 1 mg/kg, iv measured upto 48 hrs; assay type: ADME, organism-based
Mus musculus [3] = test: Psychedelic effect in C57BL/6J mouse assessed as number of 5-HT2A receptor dependent head-twitch responses by visual observation at 3 mg/kg, sc in presence of ketanserin 1 mg/kg, sc measured after 24 hrs; assay type: functional
[4] = Initial plasma concentration in male Sprague-Dawley rat at 1 mg/kg, iv measured upto 8 hrs by LC-MS/MS analysis; assay type: ADME, organism-based
[5] = AUCinf in male Sprague-Dawley rat brain at 1 mg/kg, iv measured upto 8 hrs by LC-MS/MS analysis; assay type: ADME, organism-based
[6] = AUClast in beagle dog at 0.4 mg/kg, iv measured upto 24 hrs; assay type: ADME, organism-based, Canis lupus familiaris; conditions: in vivo
[7] = AUClast in male Sprague-Dawley rat brain at 1 mg/kg, iv measured upto 8 hrs by LC-MS/MS analysis; assay type: ADME, organism-based
[8] = AUCinf in beagle dog at 0.4 mg/kg, iv measured upto 24 hrs; assay type: ADME, organism-based, Canis lupus familiaris; conditions: in vivo
[9] = Ex vivo binding in C57BL/6J mouse brain frontal cortex assessed as specific binding [3H]Cimbi-36 at 1 mg/kg, sc measured after 5 mins by liquid scintillation counting analysis (reference value: 1092 +/- 53); assay type: functional
[10] = MRTlast in Wistar rat brain at 5 mg/kg, po measured upto 48 hrs; assay type: ADME, organism-based
[11] = Tmax in male Sprague-Dawley rat plasma at 1 mg/kg, iv measured upto 8 hrs by LC-MS/MS analysis; assay type: ADME, organism-based
[12] = molecular target: T1, 5-hydroxytryptamine receptor 1A (Homo sapiens) (UniProt P08908); test: Agonist activity at human 5-HT1A receptor expressed in HEK293T cells co-transfected with 22F-Glosensor assessed as maximal inhibition of cAMP production measured after 30 mins incubation by Microbeta2Micro-plate counter analysis relative to control; assay type: functional, cell-based; conditions: filed as agonist
T1 sequence (whole entry): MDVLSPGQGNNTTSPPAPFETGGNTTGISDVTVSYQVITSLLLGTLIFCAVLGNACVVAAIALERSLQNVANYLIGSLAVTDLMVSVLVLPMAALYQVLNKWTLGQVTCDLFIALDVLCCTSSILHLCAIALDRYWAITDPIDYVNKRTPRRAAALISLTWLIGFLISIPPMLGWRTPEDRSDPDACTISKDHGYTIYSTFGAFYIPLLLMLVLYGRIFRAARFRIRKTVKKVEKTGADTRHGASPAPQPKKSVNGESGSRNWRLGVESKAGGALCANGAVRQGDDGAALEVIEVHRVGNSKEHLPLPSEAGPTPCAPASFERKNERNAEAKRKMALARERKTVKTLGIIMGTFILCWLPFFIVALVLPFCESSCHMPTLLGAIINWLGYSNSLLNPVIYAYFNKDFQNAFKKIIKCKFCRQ

Mus musculus [13] = test: Locomotor activity in C57BL/6J mouse assessed as distance traveled at 3 mg/kg, sc measured for 15 to 25 mins (reference value: 1710 +/- 120 cm) by Ethovision tracking system; assay type: functional; conditions: time 15-25 min
[14] = Ex vivo binding in C57BL/6J mouse brain frontal cortex assessed as specific binding [3H]Cimbi-36 at 1 mg/kg, sc measured after 300 mins by liquid scintillation counting analysis (reference value: 1092 +/- 53); assay type: functional; conditions: 5 h
[15] = Ex vivo binding in C57BL/6J mouse brain frontal cortex assessed as specific binding [3H]Cimbi-36 at 1 mg/kg, sc measured after 15 mins by liquid scintillation counting analysis (reference value: 1092 +/- 53); assay type: functional; conditions: 0.25 h
Mus musculus [16] = test: Psychedelic effect in C57BL/6J mouse assessed as number of head-twitch responses by visual observation at 3 mg/kg, po measured for 3 mins at 160 to 170 min; assay type: functional; conditions: 0.05 h
[17] = CSF to brain ratio in male Sprague-Dawley rat at 1 mg/kg, iv measured upto 8 hrs by LC-MS/MS analysis; assay type: ADME, organism-based; conditions: in vivo
[18] = MRTlast in Wistar rat brain at 1 mg/kg, iv measured upto 48 hrs; assay type: ADME, organism-based
[19] = Half life in male Sprague-Dawley rat plasma at 1 mg/kg, iv measured upto 8 hrs by LC-MS/MS analysis; assay type: ADME, organism-based
Mus musculus [20] = test: Induction of neuroplasticity in C57BL/6J mouse assessed as increase in Homer1 mRNA expression in brain frontal cortex at 0.3 mg/kg, sc single dose by RT-PCR analysis; assay type: functional, organism-based
[21] = Brain to plasma ratio in Wistar rat at 1 mg/kg, iv measured upto 48 hrs; assay type: ADME, organism-based; conditions: read-out: BPR
[22] = Half life in Wistar rat brain at 5 mg/kg, po measured upto 48 hrs; assay type: ADME, organism-based
[23] = Ex vivo binding in C57BL/6J mouse brain frontal cortex assessed as inhibition of [3H]Cimbi-36 binding at 1 mg/kg, sc measured after 15 mins by liquid scintillation counting analysis (reference value: 0%); assay type: functional; conditions: 0.25 h
[24] = Absolute oral bioavailability in Wistar rat plasma at 5 mg/kg, […] measured upto 48 hrs; assay type: ADME, organism-based
[25] = Cmax in male Sprague-Dawley rat CSF at 1 mg/kg, iv measured upto 8 hrs by LC-MS/MS analysis; assay type: ADME, organism-based, Cerebrospinal fluid
Hippocampus [26] = test: Induction of neuroplasticity in C57BL/6J mouse assessed as increase in PSD-95 mRNA expression in brain hippocampus at 3 mg/kg, sc single dose by RT-PCR analysis; assay type: functional, organism-based
Mus musculus [27] = test: Psychedelic effect in C57BL/6J mouse assessed as maximal number of 5-HT2A receptor dependent head-twitch responses by visual observation at 3 mg/kg, sc (reference value: 3); assay type: functional
Hippocampus [28] = test: Induction of neuroplasticity in C57BL/6J mouse assessed as increase in IGF1 mRNA expression in brain hippocampus at 3 mg/kg, sc single dose by RT-PCR analysis; assay type: functional, organism-based
[29] = Drug excretion in Wistar rat urine at 5 mg/kg, po measured upto 48 hrs; assay type: ADME, organism-based; conditions: read-out: Drug excretion
[30] = AUCinf in Wistar rat brain at 5 mg/kg, po measured upto 48 hrs; assay type: ADME, organism-based
Mus musculus [31] = test: Locomotor activity in C57BL/6J mouse assessed as distance traveled at 10 mg/kg, po measured for 15 to 25 mins (reference value: 1710 +/- 120 cm) by Ethovision tracking system; assay type: functional; conditions: time 15-25 min
Hippocampus [32] = test: Induction of neuroplasticity in C57BL/6J mouse assessed as increase in NPTN mRNA expression in brain hippocampus at 3 mg/kg, sc single dose by RT-PCR analysis; assay type: functional, organism-based
[33] = CSF to plasma ratio in male Sprague-Dawley rat at 1 mg/kg, iv measured upto 8 hrs by LC-MS/MS analysis; assay type: ADME, organism-based; conditions: CSF and plasma
[34] = Ex vivo binding in C57BL/6J mouse brain frontal cortex assessed as inhibition of [3H]Cimbi-36 binding at 1 mg/kg, sc measured after 220 mins by liquid scintillation counting analysis (reference value: 0%); assay type: functional; conditions: 3.667 h
[35] = molecular target: Alpha-2B adrenergic receptor (Homo sapiens, UniProt P18089); test: biochemical; assay type: cell-based, CHO-K1
Chain of Alpha-2B adrenergic receptor (P18089 whole entry): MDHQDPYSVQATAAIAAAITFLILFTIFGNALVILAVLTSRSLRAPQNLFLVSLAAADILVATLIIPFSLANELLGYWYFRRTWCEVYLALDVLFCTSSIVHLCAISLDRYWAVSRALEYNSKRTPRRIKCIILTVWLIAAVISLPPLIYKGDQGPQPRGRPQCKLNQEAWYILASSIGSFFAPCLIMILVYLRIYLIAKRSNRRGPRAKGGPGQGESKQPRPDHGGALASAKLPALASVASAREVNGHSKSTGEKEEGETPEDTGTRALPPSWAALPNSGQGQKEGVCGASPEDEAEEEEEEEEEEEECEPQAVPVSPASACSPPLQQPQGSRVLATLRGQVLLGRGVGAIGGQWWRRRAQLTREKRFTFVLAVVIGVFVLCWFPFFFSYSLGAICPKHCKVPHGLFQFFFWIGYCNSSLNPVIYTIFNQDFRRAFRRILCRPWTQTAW

With `COc1cc([Se]C(F)(F)F)c(OC)cc1CCN.Cl` as the compound, how does the MRT inf [1] read?
Its MRT inf is 1.98 h.

And the clearance [2]?
The clearance was 328 mL/min/kg.

And the Activity (Mus musculus [3])?
The Activity was 0.17.

What about the C0 at 8 h [4] of the same compound?
The C0 at 8 h was 330 ng/mL.

What about the AUC(0-inf) [5] of the same compound?
The AUC(0-inf) was 3280 ng·h/mL.

What about the AUC(0-t) at 24 h [6] of the same compound?
The AUC(0-t) at 24 h was 366 ng·h/mL.

What about the AUC(0-t) at 8 h [7] of the same compound?
The AUC(0-t) at 8 h was 3220 ng·h/mL.

And the AUC(0-inf) [8]?
Its AUC(0-inf) is 446 ng·h/mL.

And the Activity [9]?
Its Activity is 947.

What about the MRT last at 48 h [10] of the same compound?
The MRT last at 48 h was 3.3 h.

What about the Tmax [11] of the same compound?
Its Tmax is 4.98 min.

And the Emax [12]?
Its Emax is 92%.

What about the Activity (Mus musculus [13]) of the same compound?
Its Activity is 2446 cm.

And the Activity [14]?
Its Activity is 857.

And the Activity [15]?
The Activity was 971.

What about the Activity (Mus musculus [16]) of the same compound?
The Activity was 29.

And the Ratio [17]?
Its Ratio is 0.016.

What about the MRT last at 48 h [18] of the same compound?
The MRT last at 48 h was 2.54 h.

What about the half-life [19] of the same compound?
Its half-life is 1.53 h.

And the Activity (Mus musculus [20])?
The Activity was “Active”.

And the Kp at 48 h [21]?
Its Kp at 48 h is 64.3.

What about the half-life [22] of the same compound?
Its half-life is 4.71 h.

What about the inhibition in vivo at 1 mg/kg [23] of the same compound?
The inhibition in vivo at 1 mg/kg was 11%.

And the bioavailability [24]?
Its bioavailability is 19.1%.

And the Cmax [25]?
The Cmax was 48.7 ng/mL.

What about the Activity (Hippocampus [26]) of the same compound?
The Activity was “inactive”.

What about the Activity (Mus musculus [27]) of the same compound?
Its Activity is 23.

And the Activity (Hippocampus [28])?
Its Activity is “inactive”.

What about the dose excreted at 48 h [29] of the same compound?
The dose excreted at 48 h was 0.3%.

And the AUC(0-inf) [30]?
The AUC(0-inf) was 2880 ng·h/mL.

And the Activity (Mus musculus [31])?
Its Activity is 1974 cm.

And the Activity (Hippocampus [32])?
Its Activity is “inactive”.

What about the Kp at 8 h [33] of the same compound?
Its Kp at 8 h is 0.2.

And the inhibition in vivo at 1 mg/kg [34]?
Its inhibition in vivo at 1 mg/kg is 27%.

And the Ki [35]?
The Ki was 1.05 µM.
